Here are results for 22 compounds from ChEMBL document CHEMBL1811852, “In vitro cytotoxic activity of abietane diterpenes from Peltodon longipes as well as Salvia miltiorrhiza and Salvia sahendica” (Bioorg Med Chem, 2011).

Structures are written as SMILES. Where only a bound is given, the exact number is not on record here.

For one experiment, the system named is MIA PaCa-2. Nature of the experiment: Cytotoxicity against human MIAPaCa2 cells after 24 hrs by MTT assay. Type of experiment: functional, cell-based. The note with it: MIA PaCa-2, 24 h. (Formazan colour is commonly taken as a measure of viable cells.)
Experiment [1] is described as follows: Cytotoxicity against human MV-3 cells after 24 hrs by MTT assay. It counts as functional, cell-based. The note with it: MV-3, 24 h.

On to `CC(C)C1=C(O)C(=O)C2=C(C(=O)C[C@H]3C(C)(C)CCC[C@]23C)C1=O`, for which the IC50 – broadly, the point on the concentration scale where inhibition reaches its midpoint – came to 30.1 µM in the experiment with MIA PaCa-2 and 65.8 µM in experiment [1].
With `CCO[C@@H]1C[C@H]2C(C)(C)CCC[C@]2(C)C2=C1C(=O)C(C(C)C)=C(O)C2=O`, the IC50 in the experiment with MIA PaCa-2 is greater than 100 µM; in experiment [1], greater than 80 µM.
On the same counts, the results for `COc1c(O)c(C(C)C)cc2c1[C@@]1(C)CCCC(C)(C)[C@@H]1CC2=O` are 34.9 µM and 32.3 µM.
In the experiment on MIA PaCa-2, `CC1=CCCc2c1ccc1c2C(=O)C(=O)c2c(C)coc2-1` registered a half-inhibitory concentration (IC50) of 5.6 µM.
In the experiment on MIA PaCa-2, `CC(C)C1=Cc2ccc3c(c2C(=O)C1=O)C(=O)CCC3(C)C` had a concentration for half-maximal inhibition (IC50) of 29.9 µM.
As for `CC(=O)O[C@@H]1C[C@H]2C(C)(C)CCC[C@]2(C)C2=C1C(=O)C(C(C)C)=C(O)C2=O`, the IC50 with MIA PaCa-2 is 4.7 µM; in experiment [1] it was 7.4 µM.
The compound `CC[C@@]1(O)C(=O)OCc2c1cc1n(c2=O)Cc2cc3ccccc3nc2-1` [CAMPTOTHECIN] returned an IC50 with MIA PaCa-2 of 0.4 µM.
Turning to `COc1c(C(C)C)cc2c(c1O)[C@@]1(C)CCCC(C)(C)[C@@H]1CC2=O` [CRYPTOJAPONOL], the IC50 with MIA PaCa-2 was greater than 100 µM; in experiment [1], greater than 80 µM.
On to `C[C@H]1COC2=C1C(=O)C(=O)c1c2ccc2c1CCCC2(C)C` [CRYPTOTANSHINONE], for which, in the experiment with MIA PaCa-2, the IC50 worked out at 5.8 µM.
As for `CC(C)C1=C(O)C(=O)c2c(ccc3c2CCCC3(C)C)C1=O` [DEOXYNEOCRYPTOTANSHINONE], the values for the IC50 (with MIA PaCa-2; in experiment [1]) were greater than 100 µM and greater than 150 µM, respectively.
In turn, `CC(C)c1cc2c(cc1O)[C@@]1(C)CCCC(C)(C)[C@@H]1CC2` [FERRUGINOL] showed an IC50 with MIA PaCa-2 of 25.9 µM.
In the case of `CC(C)C1=C(O)C(=O)C2=C(C1=O)[C@H](O)C[C@H]1C(C)(C)CCC[C@]21C` [HORMINONE], the results for the half-inhibitory concentration (IC50) (with MIA PaCa-2; in experiment [1]) were 27.5 µM and 16.7 µM, respectively.
The matching figures for `COc1c(C(C)C)cc2c(c1O)[C@@]1(C)CCCC(C)(C)[C@@H]1[C@@H](O)C2` [IGUESTOL]: 41.3 µM and 65.9 µM.
On to `COc1c(O)c2c(c(O)c1C(C)C)C(=O)C[C@H]1C(C)(C)CCC[C@]21C` [INUROYLEANOL], for which the IC50 in the experiment with MIA PaCa-2 is greater than 80 µM; in experiment [1], greater than 120 µM.
Regarding `CC(C)c1cc2ccc3c(c2c(O)c1O)C(=O)CCC3(C)C` [MILTIODIOL], half-maximal inhibition in the experiment with MIA PaCa-2 (IC50) required 66.3 µM.
`CC(C)C1=Cc2ccc3c(c2C(=O)C1=O)CCCC3(C)C` [MILTIRONE] had an IC50 in the experiment with MIA PaCa-2 of 22.5 µM.
As to `COc1c(O)c(C(C)C)c(O)c2c1[C@@]1(C)CCCC(C)(C)[C@@H]1CC2=O` [ORTHOSIPHONOL], the IC50 was greater than 100 µM in the experiment with MIA PaCa-2 and greater than 80 µM in experiment [1].
As to `CC(C)C1=C(O)C(=O)C2=C(CC[C@H]3C(C)(C)CCC[C@]23C)C1=O` [ROYLEANONE], the half-inhibitory concentration (IC50) in the experiment on MIA PaCa-2 is 32.5 µM; in experiment [1] it was greater than 80 µM.
`CC(C)=CCCc1c(C)ccc2c1C(=O)C=C(C(C)C)C2=O` [SAHANDINONE]: the IC50 with MIA PaCa-2 amounted to 10.2 µM.
Regarding `CC(C)c1cc2c(cc1O)[C@@]1(C)CCCC(C)(C)[C@@H]1CC2=O` [SUGIOL], the IC50 was 17.9 µM in the experiment on MIA PaCa-2 and 34.1 µM in experiment [1].
In the experiment on MIA PaCa-2, `Cc1coc2c1C(=O)C(=O)c1c-2ccc2c1CCCC2(C)C` [TANSHINONE IIA] showed a concentration for half-maximal inhibition (IC50) of 1.9 µM.
In the experiment with MIA PaCa-2, `Cc1coc2c1C(=O)C(=O)c1c-2ccc2c(C)cccc12` [TANSHINONE I] showed an IC50 of 10.5 µM.
